Measurements from PubChem BioAssay (NCI).
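96-well plates; 48 h exposure; 5 concentrations. Endpoints by linear interpolation between flanking doses. Not reached: highest tested concentration assigned. At the TGI there is no net growth.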

How the values were obtained:
Assay in all cases: NCI-60 cell line screen, 48 h
NCI-H522 lung = test system: NCI-H522 lung
SNB-75 CNS = test system: SNB-75 CNS
T-47D breast = test system: T-47D breast
SW-620 colon = test system: SW-620 colon
NCI-H226 lung = test system: NCI-H226 lung
SR leukemia = test system: SR leukemia
HCT-15 colon = test system: HCT-15 colon
HS 578T breast = test system: HS 578T breast
UO-31 renal = test system: UO-31 renal
SK-OV-3 ovarian = test system: SK-OV-3 ovarian
CCRF-CEM leukemia = test system: CCRF-CEM leukemia
OVCAR-3 ovarian = test system: OVCAR-3 ovarian
A498 renal = test system: A498 renal
MALME-3M melanoma = test system: MALME-3M melanoma
ACHN renal = test system: ACHN renal
786-0 renal = test system: 786-0 renal
MDA-MB-231 breast = test system: MDA-MB-231 breast
OVCAR-4 ovarian = test system: OVCAR-4 ovarian
HT29 colon = test system: HT29 colon
RPMI-8226 leukemia = test system: RPMI-8226 leukemia
A549 NSCLC = test system: A549 NSCLC
K-562 leukemia = test system: K-562 leukemia
HOP-92 NSCLC = test system: HOP-92 NSCLC
MOLT-4 leukemia = test system: MOLT-4 leukemia
SK-MEL-5 melanoma = test system: SK-MEL-5 melanoma
HOP-62 NSCLC = test system: HOP-62 NSCLC
M14 melanoma = test system: M14 melanoma
SF-268 CNS = test system: SF-268 CNS
NCI/ADR-RES ovarian = test system: NCI/ADR-RES ovarian
U251 CNS = test system: U251 CNS
IGROV1 ovarian = test system: IGROV1 ovarian
SF-295 CNS = test system: SF-295 CNS
OVCAR-5 ovarian = test system: OVCAR-5 ovarian
PC-3 prostate = test system: PC-3 prostate
BT-549 breast = test system: BT-549 breast
COLO 205 colon = test system: COLO 205 colon
HL-60(TB) leukemia = test system: HL-60(TB) leukemia
SN12C renal = test system: SN12C renal
SK-MEL-28 melanoma = test system: SK-MEL-28 melanoma
NCI-H23 lung = test system: NCI-H23 lung
HCT-116 colon = test system: HCT-116 colon
TK-10 renal = test system: TK-10 renal
UACC-62 melanoma = test system: UACC-62 melanoma
MCF7 breast = test system: MCF7 breast
SK-MEL-2 melanoma = test system: SK-MEL-2 melanoma
SF-539 CNS = test system: SF-539 CNS
DU-145 prostate = test system: DU-145 prostate
OVCAR-8 ovarian = test system: OVCAR-8 ovarian
MDA-MB-435 = test system: MDA-MB-435
NCI-H460 lung = test system: NCI-H460 lung
MDA-N = test system: MDA-N
UACC-257 melanoma = test system: UACC-257 melanoma
CAKI-1 renal = test system: CAKI-1 renal
KM12 colon = test system: KM12 colon
RXF 393 renal = test system: RXF 393 renal
LOX IMVI melanoma = test system: LOX IMVI melanoma

Measured: TGI

CN(C)CCNC(=O)c1ccc(NC(=O)c2nc([N+](=O)[O-])cn2C)cc1
> 100 µM: all assays above
